Experimental data: ChEMBL document CHEMBL1148964, “New furofuran and butyrolactone lignans with antioxidant activity from the stem bark of Styrax japonica” (J Nat Prod, 2004)

System: Radical scavenging activity
Experiment: Antioxidant activity assessed as DPPH radical scavenging activity after 30 mins
Type: functional

| Compound | IC50 |
| --- | --- |
| COc1cc([C@@H]2OC[C@@H]3[C@H]2C(=O)O[C@H]3c2ccc3c(c2)OCO3)ccc1O[C@@H]1O[C@H](CO)[C@@H](O)[C@H](O)[C@H]1O [STYRAXLIGNOLIDE B] | > 500 µM |
| COc1ccc(C[C@@H]2C(=O)OC[C@H]2Cc2ccc(O[C@@H]3O[C@H](CO)[C@@H](O)[C@H](O)[C@H]3O)c(OC)c2)cc1O [STYRAXLIGNOLIDE C] | 380 µM |
| COc1cc(C[C@@H]2C(=O)OC[C@H]2Cc2ccc(O[C@@H]3O[C@H](CO)[C@@H](O)[C@H](O)[C@H]3O)c(OC)c2)ccc1O [STYRAXLIGNOLIDE D] | 278 µM |
| COc1cc(C[C@@H]2COC(=O)[C@H]2Cc2ccc(O[C@@H]3O[C@H](CO)[C@@H](O)[C@H](O)[C@H]3O)c(OC)c2)ccc1O [STYRAXLIGNOLIDE E] | 194 µM |
| Cc1c(C)c2c(c(C)c1O)CC[C@@](C)(CCC[C@H](C)CCC[C@H](C)CCCC(C)C)O2 [ALPHA-TOCOPHEROL] | 20.1 µM |
| COc1ccc(C[C@@H]2C(=O)OC[C@H]2Cc2ccc(O[C@@H]3O[C@H](CO)[C@@H](O)[C@H](O)[C@H]3O)c(OC)c2)cc1OC [STYRAXLIGNOLIDE F] | > 500 µM |
| CC1(C)CC[C@]2(C)CC=C3[C@]4(C)CC[C@H]5C(C)(C)[C@@H](O)CC[C@]5(C)[C@H]4CC[C@@]3(C)[C@@H]2C1 [TARAXEROL] | > 500 µM |
| COc1cc(/C=C/CO)cc(OC)c1O[C@@H]1O[C@H](CO)[C@@H](O)[C@H](O)[C@H]1O [SYRINGIN] | > 500 µM |
